Experimental data reported in patent publication US20250059188A1, “ARYLSULPHONAMIDE COMPOUNDS” (Anaxis Pharma Pty Ltd, priority 2021, published 2025).
pIC50: −log10 of the molar value.

System: Immortalised Mouse Dermal Fibroblasts (MDFs)
Test: Inhibition of TSI induced necroptosis in mouse dermal fibroblasts (CellTitre-Glo)
Settings: Mus musculus, Fibroblast, 3 h, MDF cells, TSI cocktail (TNF, Smac mimetic, IDN-6556), read-out: Inhibition of TSI-induced necroptosis (IC50 cell-based assay) in MDF
Summary of the method: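 Immortalised MDFs (2200 cells/well, DMEM + 7.4% FBS) pretreated 30 min with compound (36 μM top, 1:3, 10 points, 0.3% DMSO), then 3 h with TNF 100 ng/ml, Smac mimetic 500 nM and IDN-6556 10 μM at 37 °C. Viability by CellTiter-Glo luminescence; IC50 from 4-parameter logistic fit.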

Compound	pIC50
C[C@H](Oc1cc(-c2nn(C)c3c(-c4cnn(C5CCN(C)CC5)c4)cnc(N)c23)ccc1NS(=O)(=O)C(F)F)c1ccc(F)cc1 [Compound 46, (S)-N-(4-(4-amino-1-methyl-7-(1-(1-methylpiperidin-4-yl)-1H-pyrazol-4-yl)-1H-pyrazolo[4,3-c]pyridin-3-yl)-2-(1-(4-fluorophenyl)ethoxy)phenyl)-1,1-difluoromethanesulfonamide]	6.00 to 7.00
C[C@H](Oc1cc(-c2nn(C)c3c(-c4cnn(C5CCC(C)(C)N(C)C5)c4)cnc(N)c23)ccc1NS(=O)(=O)C(F)F)c1ccc(F)cc1 (some centres unmarked) [Compound 104, N-(4-{4-amino-1-methyl-7-[1-(1,6,6-trimethylpiperidin-3-yl)-1H-pyrazol-4-yl]-1H-pyrazolo[4,3-c]pyridin-3-yl}-2-[(1 S)-1-(4-fluorophenyl)ethoxy]phenyl)-1,1-difluoromethanesulfonamide]	6.00 to 7.00
CC(=O)N1CCC(n2cc(-c3cnc(N)c4c(-c5ccc(NS(=O)(=O)C(F)F)c(O[C@@H](C)c6ccc(F)cc6)c5)nn(C)c34)cn2)CC1 [Compound 109, (S)—N-(4-(7-(1-(1-acetylpiperidin-4-yl)-1H-pyrazol-4-yl)-4-amino-1-methyl-1H-pyrazolo[4,3-c]pyridin-3-yl)-2-(1-(4-fluorophenyl)ethoxy)phenyl)-1,1-difluoromethanesulfonamide]	6.00 to 7.00
C[C@H](Oc1cc(-c2nn(C)c3c(-c4cnn(C5CCN(C)C(C)(C)C5)c4)cnc(N)c23)ccc1NS(=O)(=O)C(F)F)c1ccc(F)cc1 (single isomer, unassigned) [Compound 154, N-(4-(4-amino-1-methyl-7-(1-((R*)-1,2,2-trimethylpiperidin-4-yl)-1H-pyrazol-4-yl)-1H-pyrazolo[4,3-c]pyridin-3-yl)-2-((S)-1-(4-fluorophenyl)ethoxy)phenyl)-1,1-difluoromethanesulfonamide]	> 7.00
C[C@H](Oc1cc(-c2nn(C)c3c(-c4ccc5c(cnn5C)c4)cnc(N)c23)ccc1NS(=O)(=O)C(F)F)c1ccc(F)cc1 [Compound 166, (S)-N-(4-(4-amino-1-methyl-7-(1-methyl-1H-indazol-5-yl)-1H-pyrazolo[4,3-c]pyridin-3-yl)-2-(1-(4-fluorophenyl)ethoxy)phenyl)-1,1-difluoromethanesulfonamide]	5.00 to 6.00
C[C@H](Oc1cc(-c2nn(C)c3c(-c4cnn(C5CCC(F)(F)C5)c4)cnc(N)c23)ccc1NS(=O)(=O)C(F)F)c1ccc(F)cc1 (stereo partly drawn) [Compound 120, N-(4-{4-amino-7-[1-(3,3-difluorocyclopentyl)-1H-pyrazol-4-yl]-1-methyl-1H-pyrazolo[4,3-c]pyridin-3-yl}-2-[(1S)-1-(4-fluorophenyl)ethoxy]phenyl)-1,1-difluoromethanesulfonamide]	5.00 to 6.00
[2H]C([2H])([2H])N1CCC(n2cc(-c3cnc(N)c4c(-c5ccc(NS(=O)(=O)C(F)F)c(O[C@@H](C)c6ccc(F)cc6)c5)nn(C)c34)cn2)CC1 [Compound 103]	5.00 to 6.00
C[C@H](Oc1cc(-c2nn(C)c3c(-c4cnn(C5CCC(F)(F)CC5)c4)cnc(N)c23)ccc1NS(=O)(=O)C(F)F)c1ccc(F)cc1 [Compound 146, (S)-N-(4-(4-amino-7-(1-(4,4-difluorocyclohexyl)-1H-pyrazol-4-yl)-1-methyl-1H-pyrazolo[4,3-c]pyridin-3-yl)-2-(1-(4-fluorophenyl)ethoxy)phenyl)-1,1-difluoromethanesulfonamide]	5.00 to 6.00
C[C@H](Oc1cc(-c2nn(C)c3c(-c4cnn(C5CCN(C)C6(CC6)C5)c4)cnc(N)c23)ccc1NS(=O)(=O)C(F)F)c1ccc(F)cc1 (single isomer, unassigned) [Compound 170, N-(4-(4-amino-1-methyl-7-(1-((S*)-4-methyl-4-azaspiro[2.5]octan-7-yl)-1H-pyrazol-4-yl)-1H-pyrazolo[4,3-c]pyridin-3-yl)-2-((S)-1-(4-fluorophenyl)ethoxy)phenyl)-1,1-difluoromethanesulfonamide]	> 7.00
Cn1nc(-c2ccc(NS(=O)(=O)C(F)F)c(OCc3ccc(Cl)c(F)c3)c2)c2c(N)ncc(-c3cnn(C4CCOCC4)c3)c21 [Compound 132, N-(4-(4-amino-1-methyl-7-(1-(tetrahydro-2H-pyran-4-yl)-1H-pyrazol-4-yl)-1H-pyrazolo[4,3-c]pyridin-3-yl)-2-((4-chloro-3-fluorobenzyl)oxy)phenyl)-1,1-difluoromethanesulfonamide]	5.00 to 6.00
COCC(Oc1cc(-c2nn(C)c3c(-c4cnn(C5CCN(C)CC5)c4)cnc(N)c23)ccc1NS(=O)(=O)C(F)F)c1ccc(F)cc1 (centres unmarked) [Compound 139, N-(4-(4-amino-1-methyl-7-(1-(1-methylpiperidin-4-yl)-1H-pyrazol-4-yl)-1H-pyrazolo[4,3-c]pyridin-3-yl)-2-(1-(4-fluorophenyl)-2-methoxyethoxy)phenyl)-1,1-difluoromethanesulfonamide]	5.00 to 6.00
C[C@H](Oc1cc(-c2nn(C)c3c(-c4cnn(C5CC(C)(C)N(C)C(C)(C)C5)c4)cnc(N)c23)ccc1NS(=O)(=O)C(F)F)c1ccc(F)cc1 [Compound 162, (S)-N-(4-(4-amino-1-methyl-7-(1-(1,2,2,6,6-pentamethylpiperidin-4-yl)-1H-pyrazol-4-yl)-1H-pyrazolo[4,3-c]pyridin-3-yl)-2-(1-(4-fluorophenyl)ethoxy)phenyl)-1,1-difluoromethanesulfonamide]	> 7.00
C[C@@H](Oc1cc(-c2nn(C)c3c(-c4cnn(C5CCOCC5)c4)cnc(N)c23)ccc1NS(=O)(=O)C(F)F)c1ccc(F)cc1 [Compound 121, (R)-N-(4-(4-amino-1-methyl-7-(1-(tetrahydro-2H-pyran-4-yl)-1H-pyrazol-4-yl)-1H-pyrazolo[4,3-c]pyridin-3-yl)-2-(1-(4-fluorophenyl)ethoxy)phenyl)-1,1-difluoromethanesulfonamide]	5.00 to 6.00
C[C@H](Oc1cc(-c2nn(C)c3c(-c4cnn(C5CCCC5)c4)cnc(N)c23)ccc1NS(=O)(=O)C(F)F)c1ccc(F)cc1 [Compound 30, (S)-N-(4-(4-amino-7-(1-cyclopentyl-1H-pyrazol-4-yl)-1-methyl-1H-pyrazolo[4,3-c]pyridin-3-yl)-2-(1-(4-fluorophenyl)ethoxy)phenyl)-1,1-difluoromethanesulfonamide]	5.00 to 6.00
C[C@H](Oc1cc(-c2nn(C)c3c(-c4cnn(CC(F)(F)F)c4)cnc(N)c23)ccc1NS(=O)(=O)C(F)F)c1ccc(F)cc1 [Compound 116, (S)-N-(4-(4-amino-1-methyl-7-(1-(2,2,2-trifluoroethyl)-1H-pyrazol-4-yl)-1H-pyrazolo[4,3-c]pyridin-3-yl)-2-(1-(4-fluorophenyl)ethoxy)phenyl)-1,1-difluoromethanesulfonamide]	5.00 to 6.00
C[C@H](Oc1cc(-c2nn(C)c3c(C#CC4CCNCC4)cnc(N)c23)ccc1NS(=O)(=O)C(F)F)c1ccc(F)cc1 [Compound 79, (S)—N-(4-(4-amino-1-methyl-7-(piperidin-4-ylethynyl)-1H-pyrazolo[4,3-c]pyridin-3-yl)-2-(1-(4-fluorophenyl)ethoxy)phenyl)-1,1-difluoromethanesulfonamide]	5.00 to 6.00
C[C@H](Oc1cc(-c2nn(C)c3c(-c4cnn(CCC(F)(F)F)c4)cnc(N)c23)ccc1NS(=O)(=O)C(F)F)c1ccc(F)cc1 [Compound 131, (S)-N-(4-(4-amino-1-methyl-7-(1-(3,3,3-trifluoropropyl)-1H-pyrazol-4-yl)-1H-pyrazolo[4,3-c]pyridin-3-yl)-2-(1-(4-fluorophenyl)ethoxy)phenyl)-1,1-difluoromethanesulfonamide]	5.00 to 6.00
CC(C)N(C)C(=O)C(C)n1cc(-c2cnc(N)c3c(-c4ccc(NS(=O)(=O)C(F)F)c(O[C@@H](C)c5ccc(F)cc5)c4)nn(C)c23)cn1 (stereo partly drawn) [Compound 81, 2-(4-(4-amino-3-(4-((difluoromethyl)sulfonamido)-3-((S)-1-(4-fluorophenyl)ethoxy)phenyl)-1-methyl-1H-pyrazolo[4,3-c]pyridin-7-yl)-1H-pyrazol-1-yl)-N-isopropyl-N-methylpropanamide]	5.00 to 6.00
COCCn1cc(-c2cnc(N)c3c(-c4ccc(NS(=O)(=O)C(F)F)c(O[C@@H](C)c5ccc(F)cc5)c4)nn(C)c23)cn1 [Compound 29, (S)-N-(4-(4-amino-7-(1-(2-methoxyethyl)-1H-pyrazol-4-yl)-1-methyl-1H-pyrazolo[4,3-c]pyridin-3-yl)-2-(1-(4-fluorophenyl)ethoxy)phenyl)-1,1-difluoromethanesulfonamide]	5.00 to 6.00
C[C@H](Oc1cc(-c2nn(C)c3c(-c4cnn(C5CCN(C)C(C)(C)C5)c4)cnc(N)c23)ccc1NS(=O)(=O)C(F)F)c1ccc(F)cc1 (single isomer, unassigned) [Compound 113]	6.00 to 7.00
C[C@H](Oc1cc(-c2nn(C)c3c(-c4cnn(C5CCOCC5)c4)cnc(N)c23)ccc1NS(=O)(=O)C(F)F)c1cccc(Cl)c1 [Compound 122, (S)-N-(4-(4-amino-1-methyl-7-(1-(tetrahydro-2H-pyran-4-yl)-1H-pyrazol-4-yl)-1H-pyrazolo[4,3-c]pyridin-3-yl)-2-(1-(3-chlorophenyl)ethoxy)phenyl)-1,1-difluoromethanesulfonamide]	5.00 to 6.00
C[C@H](Oc1cc(-c2nn(C)c3c(-c4cnn(C(C)(C)CO)c4)cnc(N)c23)ccc1NS(=O)(=O)C(F)F)c1ccc(F)cc1 [Compound 97, (S)-N-(4-(4-amino-7-(1-(1-hydroxy-2-methylpropan-2-yl)-1H-pyrazol-4-yl)-1-methyl-1H-pyrazolo[4,3-c]pyridin-3-yl)-2-(1-(4-fluorophenyl)ethoxy)phenyl)-1,1-difluoromethanesulfonamide]	5.00 to 6.00
C[C@H](Oc1cc(-c2nn(C)c3c(-c4cnn(C5CC6(C5)CN(C)C6)c4)cnc(N)c23)ccc1NS(=O)(=O)C(F)F)c1ccc(F)cc1 [Compound 99, (S)-N-(4-(4-amino-1-methyl-7-(1-(2-methyl-2-azaspiro[3.3]heptan-6-yl)-1H-pyrazol-4-yl)-1H-pyrazolo[4,3-c]pyridin-3-yl)-2-(1-(4-fluorophenyl)ethoxy)phenyl)-1,1-difluoromethanesulfonamide]	5.00 to 6.00
